Among the data in ChEMBL document CHEMBL3046325, “Synthesis, computational studies, and preliminary pharmacological evaluation of new arylpiperazines as potential antipsychotics” (Med Chem Res, 2012) are ED50 values, retold here.

Data set [1] concerns Mus musculus. Nature of the data set: Induction of catalepsy in ip dosed Mus musculus albino (mouse) measured at 30 min interval until 120 min and at the end of 240 min. Format: organism-based. The conditions noted are these: in vivo.
For data set [2], the system named is Mus musculus. Nature of the data set: Antipsychotic activity in ip dosed Mus musculus Swiss albino (mouse) assessed as inhibiton of 5-HTP-induced head twitches pretreated 30 min before 50 mg/kg, sc 5-HTP administration measured at 10 min intervals for 30 min, starting 20 min after 5-HTP challenge. It counts as functional.
For data set [3], the system named is Mus musculus. Nature of the data set: Antipsychotic activity in ip dosed Mus musculus Swiss albino (mouse) assessed as inhibition of […] -induced climbing behavior pretreated 10 min prior to 2.5 mg/kg, ip apomorphine administration measured at 5 min intervals for up to 20 min starting 10 min after apomorphine challenge. Format: functional. The conditions noted are these: route intraperitoneal.

Turning to `COc1ccccc1N1CCN(CCCOc2ccccc2C(N)=O)CC1`, the ED50 (usually the midpoint of the dose-response relation) is more than 60 mg/kg in the data set with Mus musculus [1], 18.2 mg/kg with Mus musculus [2] and 50 mg/kg with Mus musculus [3].
With `CN1CCN(C2=Nc3cc(Cl)ccc3Nc3ccccc32)CC1` [CLOZAPINE], the 50% effective dose (ED50) in the data set on Mus musculus [2] came to 2.8 mg/kg; with Mus musculus [3] it was 8.7 mg/kg.
On to `NC(=O)c1ccccc1OCCN1CCN(c2ccccc2)CC1`, for which the results for the ED50 with Mus musculus [1], in the data set with Mus musculus [2] and with Mus musculus [3] were 50 mg/kg, 30 mg/kg and 35.3 mg/kg, respectively.
For `COc1ccccc1N1CCN(CCCCOc2ccccc2C(N)=O)CC1`, in that order: more than 70 mg/kg, more than 40 mg/kg and 50.8 mg/kg.
On to `NC(=O)c1ccccc1OCCN1CCN(c2ccccc2Cl)CC1`, for which the ED50 was more than 80 mg/kg in the data set with Mus musculus [1], more than 20 mg/kg in the data set on Mus musculus [2] and more than 40 mg/kg in the data set with Mus musculus [3].
For `COc1ccccc1N1CCN(CCOc2ccccc2C(N)=O)CC1`, in that order: 100 mg/kg, 10 mg/kg and 40 mg/kg.
On to `NC(=O)c1ccccc1OCCCN1CCN(c2ccccc2)CC1`, for which the ED50 was more than 60 mg/kg in the data set with Mus musculus [1], more than 20 mg/kg in the data set with Mus musculus [2] and more than 40 mg/kg with Mus musculus [3].
Consider `Cc1ccc(N2CCN(CCOc3ccccc3C(N)=O)CC2)cc1`, for which the ED50 was more than 80 mg/kg in the data set with Mus musculus [1], 27.2 mg/kg in the data set with Mus musculus [2] and 40.5 mg/kg with Mus musculus [3].
Consider `NC(=O)c1ccccc1OCCCCN1CCN(c2ccccc2)CC1`, for which the ED50 with Mus musculus [1] is more than 60 mg/kg; in the data set with Mus musculus [2], more than 40 mg/kg; in the data set on Mus musculus [3] it was more than 40 mg/kg.
Take `Cc1cccc(N2CCN(CCOc3ccccc3C(N)=O)CC2)c1`: the values for the ED50 with Mus musculus [1], with Mus musculus [2] and in the data set with Mus musculus [3] were 70 mg/kg, more than 20 mg/kg and 40 mg/kg, respectively.
`COc1cccc(N2CCN(CCOc3ccccc3C(N)=O)CC2)c1`: the ED50 with Mus musculus [1] was more than 80 mg/kg; in the data set with Mus musculus [2] it was 25 mg/kg; in the data set with Mus musculus [3], more than 40 mg/kg.
